# Results taken from publication PMC10247784, “Physiological activation of human and mouse bitter taste receptors by bile acids” (Communications Biology, 2023).
# Target: T1, mouse Tas2r117 (Mus musculus, UniProt Q7M715)
# T1 construct: expressed in transfected cells; host or cells: HEK293T-Gα16gust44
# T1 sequence (Q7M715 1-330): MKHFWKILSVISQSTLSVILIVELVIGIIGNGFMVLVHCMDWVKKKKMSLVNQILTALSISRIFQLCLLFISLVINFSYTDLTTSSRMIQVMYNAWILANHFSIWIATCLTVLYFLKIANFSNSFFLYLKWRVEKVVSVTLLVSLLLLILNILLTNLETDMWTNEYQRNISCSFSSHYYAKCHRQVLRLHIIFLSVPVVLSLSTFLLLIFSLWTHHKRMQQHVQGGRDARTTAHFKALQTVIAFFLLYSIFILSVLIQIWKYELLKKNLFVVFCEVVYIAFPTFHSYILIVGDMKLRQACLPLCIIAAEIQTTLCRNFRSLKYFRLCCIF
# Experiment: Calcium imaging assay (FLIPR), HEK293T-Gα16gust44 cells transfected with mouse Tas2r117
# Format: cell-based
# Settings: for Δ F/F: Tas2r117; for RLU: sheet Tas2r117, time trace
# Protocol: This set of bile acids was chosen because of their commercial availability in high purities, their diversity within the class of bile acids and their previous detection and quantitation in human blood. Stock solutions were prepared in DMSO.
# As basal growth medium for the HEK293T-Gα16gust44 cell line[17],[59] served Dulbecco’s modified eagle medium (DMEM) (Thermo Fisher Scientific, Darmstadt, Germany) supplemented with 10 % fetal bovine serum (Sigma-Aldrich, Steinheim, Germany), 2 mM L-glutamine (Sigma-Aldrich, Steinheim, Germany), 100 units/ml penicillin (Sigma Aldrich, Steinheim, Germany) and 100 µg/ml streptomycin (Sigma Aldrich, Steinheim, Germany). Growth conditions were 37 °C, 5 % CO2 and saturated air-humidity[60].
# HEK293T-Gα16gust44 cells were seeded on poly-D-lysine (10 µg/ml) coated 96-well plates to reach a confluence of 40-60 % the next day. For transient transfection 150 ng of plasmid DNA containing the receptor of interest and 0.3 µl lipofectamine 2000 (Thermo Fisher Scientific, Darmstadt, Germany) per well were used and transfection took place according to the manual of lipofectamine 2000. […] The empty vector DNA (mock) was transfected as negative control[14],[41].
# Cells were loaded using the calcium-sensitive fluorescent dye Fluo-4-AM (Abcam, Cambridge, Great Britain) in the presence of 2.5 mM probenecid (Sigma-Aldrich, Steinheim, Germany) the day after transfection[13],[41]. 1 h after loading, cells were washed with C1 buffer using a BioTek Cell Washer, incubated in the dark for half an hour and washed again. For automated agonist application and measurement of fluorescence changes, a FLIPR^TETRA device (Molecular Devices, San José, United States) was used. Viability of cells was tested by application of 100 nM Somatostatin 14 (Bachem, Bubendorf, Switzerland)[42].
# Measured data were negative control corrected by subtracting the signal of the mock-transfected cells and exported to Microsoft Excel using the FLIPR software ScreenWorks 4.2. In Microsoft Excel software, standardization of maximum fluorescence intensities to the basal fluorescence and normalization to the buffer-only control was done to calculate the relative fluorescence changes (ΔF/F).
# Initial screening experiments performed in duplicate wells were confirmed by at least one replication and representative traces were selected for display. All dose-response relationships were determined by three independent experiments (biological replicates) performed in duplicates (technical replicates). Threshold concentrations, defined as lowest substance concentrations leading to statistically significant elevated fluorescence changes in receptor-transfected cells compared with empty vector-transfected cells, were determined using SigmaPlot with Student’s t-test to evaluate statistical significance (p < 0.01).
structure (smiles),measurement,setting,value
"C[C@H](CCC(=O)NCCS(=O)(=O)O)[C@H]1CC[C@H]2[C@@H]3[C@H](O)C[C@@H]4C[C@H](O)CC[C@]4(C)[C@H]3C[C@H](O)[C@]12C [Taurocholic Acid, taurocholic acid]",EC50,,37.4 ± 7.3 µM
same,Δ F/F,"conc. 0,01 mM",0.02164
same,Δ F/F,"conc. 0,1 mM",0.0925
same,Δ F/F,"conc. 0,03 mM",0.05976
same,Δ F/F,"conc. 0,3 mM",0.1209
same,Δ F/F,"conc. 0,0003 mM",-0.001001
same,Δ F/F,"conc. 0,001 mM",-0.004431
same,Δ F/F,"conc. 0,003 mM",0.00222
same,RLU,Time (s) 0,0 RLU
same,RLU,Time (s) 2,37 RLU
same,RLU,Time (s) 4,-4.077 RLU
same,RLU,Time (s) 6,12.5668 RLU
same,RLU,Time (s) 8,5.638 RLU
same,RLU,Time (s) 12,-15.6594 RLU
same,RLU,Time (s) 14,17.1601 RLU
same,RLU,Time (s) 16,-10.5322 RLU
same,RLU,Time (s) 18,-8.953 RLU
same,RLU,Time (s) 18.797,34.4566 RLU
same,RLU,Time (s) 20.797,16.7527 RLU
same,RLU,Time (s) 22.797,-7.054 RLU
same,RLU,Time (s) 24.797,38.2926 RLU
same,RLU,Time (s) 26.797,125.403 RLU
same,RLU,Time (s) 28.797,141.128 RLU
same,RLU,Time (s) 30.797,183.922 RLU
same,RLU,Time (s) 32.797,250.112 RLU
same,RLU,Time (s) 34.797,267.824 RLU
same,RLU,Time (s) 36.797,315.731 RLU
same,RLU,Time (s) 38.797,324.81 RLU
same,RLU,Time (s) 40.797,359.212 RLU
same,RLU,Time (s) 42.797,402.392 RLU
same,RLU,Time (s) 44.797,440.644 RLU
same,RLU,Time (s) 46.797,454.758 RLU
same,RLU,Time (s) 48.797,463.447 RLU
same,RLU,Time (s) 50.797,471.258 RLU
same,RLU,Time (s) 52.797,487.155 RLU
same,RLU,Time (s) 54.797,505.642 RLU
same,RLU,Time (s) 56.797,516.341 RLU
same,RLU,Time (s) 58.797,527.833 RLU
same,RLU,Time (s) 60.797,539.947 RLU
same,RLU,Time (s) 62.797,536.466 RLU
same,RLU,Time (s) 64.797,575.129 RLU
same,RLU,Time (s) 66.797,570.621 RLU
same,RLU,Time (s) 68.797,568.562 RLU
same,RLU,Time (s) 70.797,591.97 RLU
same,RLU,Time (s) 72.797,606.798 RLU
same,RLU,Time (s) 74.797,593.706 RLU
same,RLU,Time (s) 76.797,614.892 RLU
same,RLU,Time (s) 78.797,632.141 RLU
same,RLU,Time (s) 80.797,632.141 RLU
same,RLU,Time (s) 82.797,632.241 RLU
same,RLU,Time (s) 84.797,611.445 RLU
same,RLU,Time (s) 86.797,626.947 RLU
same,RLU,Time (s) 88.797,643.242 RLU
same,RLU,Time (s) 90.797,605.466 RLU
same,RLU,Time (s) 92.797,611.522 RLU
same,RLU,Time (s) 94.797,620.11 RLU
same,RLU,Time (s) 96.797,645.547 RLU
same,RLU,Time (s) 98.797,644.046 RLU
same,RLU,Time (s) 100.797,637.565 RLU
same,RLU,Time (s) 102.797,626.02 RLU
same,RLU,Time (s) 104.797,634.671 RLU
same,RLU,Time (s) 106.797,616.97 RLU
same,RLU,Time (s) 108.797,624.712 RLU
same,RLU,Time (s) 110.797,625.807 RLU
same,RLU,Time (s) 112.797,626.586 RLU
same,RLU,Time (s) 114.797,603.263 RLU
same,RLU,Time (s) 116.797,606.551 RLU
same,RLU,Time (s) 118.797,596.327 RLU
same,RLU,Time (s) 120.797,576.654 RLU
same,RLU,Time (s) 122.797,563.677 RLU
same,RLU,Time (s) 124.797,585.101 RLU
same,RLU,Time (s) 126.797,566.056 RLU
same,RLU,Time (s) 128.797,584.636 RLU
same,RLU,Time (s) 130.797,552.659 RLU
same,RLU,Time (s) 132.797,568.02 RLU
same,RLU,Time (s) 134.797,561.297 RLU
same,RLU,Time (s) 136.797,551.223 RLU
same,RLU,Time (s) 137.562,556.479 RLU
same,RLU,Time (s) 143.578,502.769 RLU
same,RLU,Time (s) 149.578,498.126 RLU
same,RLU,Time (s) 155.578,490.146 RLU
same,RLU,Time (s) 161.578,459.867 RLU
same,RLU,Time (s) 167.578,446.745 RLU
same,RLU,Time (s) 173.578,415.03 RLU
same,RLU,Time (s) 179.578,413.791 RLU
same,RLU,Time (s) 191.578,382.098 RLU
same,RLU,Time (s) 197.578,382.449 RLU
same,RLU,Time (s) 209.578,344.754 RLU
same,RLU,Time (s) 221.578,256.376 RLU
same,RLU,Time (s) 233.578,235.774 RLU
same,RLU,Time (s) 239.578,212.664 RLU
same,RLU,Time (s) 245.578,220.667 RLU
same,RLU,Time (s) 293.578,147.781 RLU
same,RLU,Time (s) 299.578,155.364 RLU
same,RLU,Time (s) 305.578,177.719 RLU
same,RLU,Time (s) 311.578,178.93 RLU
same,RLU,Time (s) 317.578,167.01 RLU
same,RLU,Time (s) 323.578,136.818 RLU
same,RLU,Time (s) 329.578,148.504 RLU
same,RLU,Time (s) 335.578,153.255 RLU
same,RLU,Time (s) 341.578,110.601 RLU
same,RLU,Time (s) 347.578,112.243 RLU
same,RLU,Time (s) 353.578,94.0464 RLU
same,RLU,Time (s) 359.578,105.186 RLU
same,Activation threshold concentration Tas2r117,p < 0.01 vs empty vector,30 µM
